# Entries after “also recorded” stand apart in the source; their conditions may differ.
# Columns and labels:
# [1] = test system: latent LTR-GFP construct in J-Lat A72 cells; assay: J-Lat A72 cells (LTR-GFP lacking Tat), flow cytometry of GFP; format: cell-based, HIV-1
# Experimental: (§1) HEK293T and Jurkat cells were obtained from the American Type Culture Collection. J-Lat (clones A2 and A72) cell lines were described. HEK293T cells were cultured in DMEM supplemented with 10% FBS, 1% L-glutamine and 1% penicillin-streptomycin (Life Technologies). Jurkat and J-Lat cells were cultured in RPMI supplemented with 10% FBS, 1% L-glutamine, and 1% penicillin-streptomycin. TNFα (Sigma-Aldrich) was used at concentrations of 0.25 or 1 ng/ml. Human αCD3 and αCD28 (BD Biosciences) were used at concentrations of 3 and 1 μg/ml, respectively. Prostratin (Sigma) was used at a suboptimal concentration of 0.5 μM, and SAHA (NCI Chemical Carcinogen Repository, Midwest Research Institute) was used at 2.5 μM.
# (§2) To determine if BET inhibition specifically activates Tat-dependent transcription, a J-Lat cell line was utilized that harbored a latent lentiviral construct expressing Tat with GFP from the HIV LTR (clone A2; LTR-Tat-IRES-GFP). […] Stimulation with JQ1 yielded up to ninefold more GFP-expressing cells than control-treated cells, and a 22-fold increase was observed when cells were co-treated with JQ1 and low doses of TNFα (FIG. 21A). […] Here, an up to 22-fold increase in GFP^+ cells resulted from JQ1 treatment alone and a 45-fold increase when TNFα was added with JQ1 (FIG. 21B). Both cell lines were also treated with prostratin and SAHA (FIG. 27).
# (§3) Two latent J-Lat cell lines A2 (containing a LTR-Tat-IRES-GFP construct) or A72 (containing a LTR-GFP construct) were treated with JQ1 or (R)-JQ1 in combination with TNFα or control at the indicated concentrations for 18 h, followed by flow cytometry analysis. […] Data represent average (±SD) of three independent experiments. All treatments in (A) and (B) on the X axis are in μM.
# [2] = test system: HIV LTR promoter driving destabilized GFP in Jurkat cells; assay: Single-cell time-lapse fluorescence microscopy of LTR-GFP Jurkat cells (two-state transcription model); format: cell-based
# Experimental: Lentiviral vectors expressing the LTR-GFP cassette in the absence of Tat were used to infect 5×10^5 Jurkat cells at a multiplicity of infection <0.1, resulting in 25,000-50,000 infected cells each presumably with a unique integration site. Cells were then sorted by FACS to isolate green fluorescent protein-labeled (GFP^+) cells and fluorescently imaged on glass-bottom dishes in RPMI 1640 with 10% fetal calf serum and 1% penicillin-streptomycin and 1 μM JQ1 at t=0 h for the treated population. The imaging took place in humidified conditions at 37° C. and 5% CO2 for 12-24 hours with a 40× (1.2 NA) oil-immersion objective on a Zeiss Observer Z1 microscope equipped with an automated linear-encoded X-Y stage. Image processing and cell tracking were performed in Matlab™ with an in-house algorithm (Weinberger et al. Nature Genet 2008; 40:466-70) and a single 12-hour experiment could generate up to 1000 single-cell trajectories for analysis.
# For each trajectory, noise autocorrelation (Φ(t)) and magnitude (CV2) were calculated using an established noise processing algorithm (Weinberger et al. Nature Genet 2008; 40:466-70; Austin D W et al., Nature 2006; 439:608-11) A published theory (Simpson M L, et al. J Theor Biol 2004; 229:383-94; Cox C D, et al. Proc Natl Acad Sci USA 2008; 105:10809-14) of the two-state transcriptional bursting model yields analytical expressions for the autocorrelation of the noise, Φ(τ), and noise magnitude. Derivations and calculated burst size and frequency have been reported (Singh A, et al. Biophysical Journal 2010; 98:L32-L4). Exogenous JQ1 addition can change either mean fluorescence, variability of expression (defined by the coefficient of variation, CV), or both. Modeling of 2-state transcription enables the differentiation between modulations in transcriptional initiation (Dkon) or in the burst size (DT/koff).
# To biophysically characterize the Tat-independent JQ1 effect on the HIV LTR, single-cell time-lapse fluorescence microscopy was performed on ˜2,000 Jurkat cells where each cell carried a different integration site of the LTR promoter driving a destabilized GFP reporter (FIG. 24A). Mean fluorescence intensity (MFI) and the magnitude of intensity fluctuations (i.e. the ‘noise’) were quantified for sub-clusters of polyclonal cells in response to JQ1 treatment (FIG. 24). The data was analyzed using an established two-state model of episodic transcription in which the LTR switches between a transcriptional OFF state, where RNA polymerase II is stalled, and a transcriptional ON state where elongation occurs and multiple mRNA transcripts are produced at a rate=T (FIG. 24B). In this model, promoter switching occurs with rates kon and koff which generates pulses or bursts of transcription.
# To determine how JQ1 influences these biophysical parameters (koff, kon, T), changes in LTR MFI and noise (measured by the coefficient of variation, CV, which is defined as the standard deviation over the mean) were examined and compared to the untreated LTR (FIG. 24C, D). By qualifying MFI and CV in time-lapse trajectories, changes in both burst frequency (kon) and burst size, or the # of mRNA produced per activity pulse, (T/koff) can be determined.
# [3] = test system: latent LTR-Tat-IRES-GFP construct in J-Lat A2 cells; assay: J-Lat A2 cells (LTR-Tat-IRES-GFP), flow cytometry of GFP; format: cell-based, HIV-1
# Experimental: as §1, §2, §3
# [4] = test system: latent DHIV-GFP, X4 virus in nonpolarized T helper cells; assay: Primary T-cell model of latency, ex vivo differentiated nonpolarized CD4+ T cells; format: cell-based, HIV-1; settings: 96 h after compound addition; minor effect only at highest doses
structure (smiles),measurement,setting,value
"Cc1sc2c(c1C)C(c1ccc(Cl)cc1)=N[C@@H](CC(=O)OC(C)(C)C)c1nnc(C)n1-2 [JQ1, tert-Butyl 2-((6S)-4-(4-chlorophenyl)-2,3,9-trimethyl-6H-thieno[3,2-f][1,2,4]triazolo[4,3-a][1,4]diazepin-6-yl)acetate]",activation of HIV transcription (GFP),[1]; 18 h,increased GFP expression; also recorded: reactivated HIV-1 in a dose-dependent manner
same,effect of adding SAHA to JQ1,[1]; FIG. 27,only a very modest increase
same,effect of adding prostratin to JQ1,[1]; FIG. 27,enhanced the JQ1 effect
same,increase in GFP+ cells,[1]; JQ1 alone,up to 22 fold
same,increase in GFP+ cells,[1]; TNFα added with JQ1,45 fold
same,delay in transcriptional initiation,"[2]; 1 μM JQ1, average",~50 min
same,increase of mRNAs per pulse of transcriptional activity,"[2]; 1 μM JQ1, average",~15 mRNAs per pulse
same,LTR noise (coefficient of variation),[2]; 1 μM JQ1 vs untreated,increases
same,average dwell time in the OFF state (1/kon),[2]; 1 μM JQ1 vs untreated,increases
same,mean fluorescence intensity (MFI),[2]; 1 μM JQ1 vs untreated,without a significant shift
same,transcription burst size (T/koff),[2]; 1 μM JQ1 vs untreated,enhancement; also recorded: increases
same,activation of HIV transcription (GFP),[3]; 18 h,activated HIV transcription in a dose-dependent manner; also recorded: reactivated HIV-1 in a dose-dependent manner; also recorded: increased GFP expression
same,effect of adding SAHA to JQ1,[3]; FIG. 27,only a very modest increase
same,effect of adding prostratin to JQ1,[3]; FIG. 27,enhanced the JQ1 effect
same,GFP-expressing cells relative to control-treated cells,[3]; JQ1 alone,up to ninefold
same,increase in GFP-expressing cells,[3]; JQ1 with low doses of TNFα,22 fold
same,reversal of latency (GFP),[4],minor activatory effect
